The record followed here is BindingDB's records for doi:10.1021/jm00142a005 (1982).

The term IC50 denotes the concentration needed to halve the response being measured. High values mean lower potency, low ones higher potency.

Counter-ions that a name gives are not always drawn.

In the experiment the target is Thromboxane-A synthase (Oryctolagus cuniculus). In words: Inhibitory activity against rabbit thromboxane synthetase.

In turn, `O=C(O)/C=C\CCCCCn1ccnc1` [8-Imidazol-1-yl-oct-2-enoic acid] showed an IC50 of 16 nM.

With `O=C(O)C1(CCCCCCn2ccnc2)CCCCC1` [1-(6-Imidazol-1-yl-hexyl)-cyclohexanecarboxylic acid; hydrochloride], half-maximal inhibition (IC50) required 46 nM.

Turning to `O=C(O)/C=C/CCCCCn1ccnc1` [8-Imidazol-1-yl-oct-2-enoic acid; hydrochloride], the IC50 stood at 70 nM.

With `O=C(O)CCCC/C=C\Cn1ccnc1` [8-Imidazol-1-yl-oct-6-enoic acid; hydrochloride], the IC50 is 56 nM.

Regarding `CC(CCCCCCn1ccnc1)C(=O)O` (stereo not drawn) [8-Imidazol-1-yl-2-methyl-octanoic acid; hydrochloride], the IC50 is 30 nM.

In turn, `CC(C)(CCCCCCC(=O)O)n1ccnc1` [8-Imidazol-1-yl-8-methyl-nonanoic acid; hydrochloride] came in with a half-inhibitory concentration (IC50) of 90 nM.

Consider `O=C(O)C(CCCCCCn1ccnc1)c1ccccc1` (stereo not drawn) [8-Imidazol-1-yl-2-phenyl-octanoic acid; hydrochloride], for which the IC50 was found to be 38 nM.

In the case of `CC(C)(CCCCn1ccnc1)CCC(=O)O` [8-Imidazol-1-yl-4,4-dimethyl-octanoic acid; hydrochloride], the IC50 came to 71 nM.
